Tests used:
[1] = cited from earlier work; for plasma half-life: human volunteers, enantiomers
[2] = hydrochloride or mucate salt form; cited from earlier work
5-HT 1A = target: T1, 5-HT 1A (Homo sapiens, UniProt P08908); test: receptor binding screen, 5-HT 1A
T1 sequence (P08908 1-422): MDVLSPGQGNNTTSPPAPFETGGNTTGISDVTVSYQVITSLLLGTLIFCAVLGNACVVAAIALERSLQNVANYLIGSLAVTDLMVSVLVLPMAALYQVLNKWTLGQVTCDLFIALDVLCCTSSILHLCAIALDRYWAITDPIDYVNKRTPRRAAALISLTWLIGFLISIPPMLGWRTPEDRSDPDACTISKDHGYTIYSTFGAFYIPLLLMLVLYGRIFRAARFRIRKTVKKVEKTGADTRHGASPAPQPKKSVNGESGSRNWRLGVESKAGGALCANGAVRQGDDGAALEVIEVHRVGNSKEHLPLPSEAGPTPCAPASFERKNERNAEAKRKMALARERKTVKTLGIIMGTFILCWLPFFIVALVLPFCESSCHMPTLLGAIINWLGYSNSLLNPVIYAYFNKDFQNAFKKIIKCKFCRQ

α2B-adrenergic receptor = target: T2, α2B-adrenergic receptor (Homo sapiens, UniProt P18089); test: ligand binding screen and equilibrium binding, α2B-adrenergic receptor; conditions: Adrenergic a2B; for inhibition at 10 µM: inhibition of ligand binding; for Ki: equilibrium binding
T2 sequence (P18089 1-450): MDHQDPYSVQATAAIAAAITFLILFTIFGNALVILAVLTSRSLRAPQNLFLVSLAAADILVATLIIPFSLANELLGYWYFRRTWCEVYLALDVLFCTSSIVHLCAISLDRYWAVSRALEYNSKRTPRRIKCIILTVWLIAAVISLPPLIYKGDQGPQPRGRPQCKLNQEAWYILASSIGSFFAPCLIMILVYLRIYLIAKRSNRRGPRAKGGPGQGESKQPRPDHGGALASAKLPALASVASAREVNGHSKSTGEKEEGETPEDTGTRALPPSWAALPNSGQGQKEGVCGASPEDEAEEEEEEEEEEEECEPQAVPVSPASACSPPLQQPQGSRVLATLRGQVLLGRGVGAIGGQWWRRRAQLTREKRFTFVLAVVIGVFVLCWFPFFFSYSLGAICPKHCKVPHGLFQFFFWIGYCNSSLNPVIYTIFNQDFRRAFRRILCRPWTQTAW

5-HT7 = 5-HT7 (Homo sapiens, UniProt P34969); test: receptor binding screen, 5-HT7; conditions: 5-HT7, 10 μM
Adrenergic a2C = target: T3, Adrenergic a2C (Homo sapiens, UniProt P18825); test: receptor binding screen, Adrenergic a2C
T3 sequence (P18825 1-462): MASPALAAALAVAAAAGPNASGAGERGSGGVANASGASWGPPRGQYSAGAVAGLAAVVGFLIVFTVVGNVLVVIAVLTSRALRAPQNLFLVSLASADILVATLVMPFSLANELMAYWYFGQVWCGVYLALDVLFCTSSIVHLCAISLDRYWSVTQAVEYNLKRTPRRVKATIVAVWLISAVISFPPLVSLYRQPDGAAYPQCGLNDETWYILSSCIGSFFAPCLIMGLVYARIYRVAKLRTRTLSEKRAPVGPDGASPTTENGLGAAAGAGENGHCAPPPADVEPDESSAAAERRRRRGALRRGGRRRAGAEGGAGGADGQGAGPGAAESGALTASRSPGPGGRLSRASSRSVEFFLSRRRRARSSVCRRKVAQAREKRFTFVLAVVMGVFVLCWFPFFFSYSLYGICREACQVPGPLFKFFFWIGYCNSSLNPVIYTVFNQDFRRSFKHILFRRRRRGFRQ

Sigma-2 receptor = Sigma-2 receptor (Homo sapiens, UniProt Q5BJF2); test: equilibrium binding, Sigma-2 receptor; conditions: Sigma 2, equilibrium binding
Sigma-1 receptor = Sigma-1 receptor (Homo sapiens, UniProt Q99720); test: equilibrium binding, Sigma-1 receptor; conditions: Sigma 1, equilibrium binding
[3] = target: Imidazoline-2 (I2) receptor; test: central Imidazoline I2 receptor radioligand binding assay; design: species or system rat
Procedure: Evaluation of the Affinity of Compounds for the Central Imidazoline I2 Receptor in the Rat Cerebral Cortex Determined in a Radioligand Binding Assay.
Membrane homogenates of cerebral cortex (1 mg protein) are incubated for 30 min at 22° C. with 2 nM [^3H]idazoxan in the absence or presence of the test compound in a buffer containing 50 mM Tris-HCl (pH 7.4), 0.5 mM EDTA and 3 μM yohimbine.
Nonspecific binding is determined in the presence of 10 μM cirazoline.
Following incubation, the samples are filtered rapidly under vacuum through glass fiber filters (Filtermat B, Wallac) presoaked with 0.3% PEI and rinsed several times with an ice-cold buffer containing 50 mM Tris-HCl and 150 mM NaCl using a 48-sample cell harvester (Mach II, Tomtec). The filters are dried then counted for radioactivity in a scintillation counter (Betaplate 1204, Wallac) using a solid scintillator (Meltilex B/HS, Wallac).
The results are expressed as a percent inhibition of the control radioligand specific binding. The standard reference compound is idazoxan, which is tested in each experiment at several concentrations to obtain a competition curve from which its IC50 is calculated.
Bibliographic reference: BROWN, C. M., MAC KINNON, A. C., McGRATH, J. C., SPEDDING, M. and KILPATRICK A. T. (1990), α2-adrenoceptor subtypes and imidazoline-like binding sites in the rat brain, Brit. J. Pharmacol, 99: 803.

human TAAR1 receptor = target: T4, human TAAR1 receptor (Homo sapiens, UniProt Q96RJ0); test: TAAR1 cAMP Biosensor Assay; type: cell-based; conditions: for Efficacy: TAAR1 activation, final concentration of 10 μM, free base; for EC50: TAAR1 cAMP accumulation, agonist dose response, mucate salts
T4 sequence (Q96RJ0 1-339): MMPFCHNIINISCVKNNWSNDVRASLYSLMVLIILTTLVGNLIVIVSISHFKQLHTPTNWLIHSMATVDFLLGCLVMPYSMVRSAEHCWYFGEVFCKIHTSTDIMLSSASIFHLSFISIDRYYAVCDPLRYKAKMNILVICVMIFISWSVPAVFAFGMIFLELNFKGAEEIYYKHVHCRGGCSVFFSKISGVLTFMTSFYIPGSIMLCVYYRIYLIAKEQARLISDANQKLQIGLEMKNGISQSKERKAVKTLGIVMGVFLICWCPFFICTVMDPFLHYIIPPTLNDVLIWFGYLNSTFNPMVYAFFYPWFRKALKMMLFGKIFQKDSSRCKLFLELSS
Procedure: To measure interactions with TAAR1, cell line stably expressing a recombinant human TAAR1 receptor were studied in the cAMP Biosensor Assay (DiscoveRx, Freemont, Calif.) since TAAR1 is coupled to G-proteins that signal through cAMP. The (S)- and (R)-Isometheptene isomers at a final concentration of 10 μM activate TAAR1 differentially, as shown on the table below, wherein (S)-Isometheptene activates more effectively than the R-Isometheptene. These activities may be linked to side-effects of racemic Isometheptene, due to the interaction of S-Isometheptene to the TAAR1 tyramine receptor.
Isometheptene Mucate USP, Isometheptene Mucate isomer 1, Isometheptene Mucate isomer 2 and p-Tyramine (control) in the TAAR1 cAMP Biosensor Assay of FIG. 23 as shown by the following diagrams (A), (B), (C), and (D). The data is shown as an agonist dose response curve, normalized to the maximal and minimal response observed in the presence of control ligand and vehicle respectively
The cAMP Hunter cell line expressing human TAAR1 was expanded from freezer stocks according to standard procedures. Cells were seeded in a total volume of 20 μL into white walled, 384-well microplates and incubated at 37° C. for the appropriate time prior to testing. cAMP modulation was determined using the DiscoveRx HitHunter cAMP XS+ assay. For agonist determination, cells were incubated with sample to induce response. Media was aspirated from cells and replaced with 15 μL 2:1 HBSS/10 mM Hepes:cAMP XS+ Ab reagent. Intermediate dilution of sample stocks was performed to generate 4× sample in assay buffer. 4.5 μL of 4× sample was added to cells and incubated at 37° C. or room temperature for 30 or 60 minutes. Final assay vehicle concentration was 1%. After appropriate compound incubation, assay signal was generated through incubation with 20 μL cAMP XS+ ED/CL lysis cocktail for one hour followed by incubation with 20 μL cAMP XS+ EA reagent for three hours at room temperature. Microplates were read following signal generation with a PerkinElmer Envision™ instrument for chemiluminescent signal detection. Compound activity was analyzed using CBIS data analysis suite (ChemInnovation, CA). For Gs agonist mode assays, percentage activity was calculated using the following formula: % Activity=100%×(mean RLU of test sample−mean RLU of vehicle control)/(mean RLU of MAX control−mean RLU of vehicle control).

[4] = system: Imidazoline 1 (I1) receptor; test: Imidazoline I1 receptor radioligand binding assay; design: species or system bovine; conditions: for Ki: Imidazoline-1 (I1), equilibrium binding
Procedure: Evaluation of the Affinity of Compounds for the Peripheral Imidazoline Receptor in Bovine Adrenal Medulla Glands Determined in a Radioligand Binding Assay.
Membrane homogenates of adrenal medulla glands (200 μg protein) are incubated for 60 min at 22° C. with 15 nM [^3H]clonidine in the absence or presence of the test compound in a buffer containing 137 mM NaCl, 2.68 mM KCl, 0.5 mM MgCl2, 8.1 mM Na2HPO4, 1.47 mM KH2PO4, 0.5 mM EGTA, 0.5 mM EDTA, 0.5% ascorbic acid and 0.1% BSA (pH 7.4). It also contains 10 μM RX821002 to block the α2-adrenergic receptors.
Nonspecific binding is determined in the presence of 10 μM rilmenidine.
Following incubation, the samples are filtered rapidly under vacuum through glass fiber filters (GF/B, Packard) presoaked with 0.3% PEI and rinsed several times with ice-cold 50 mM Tris-HCl using a 96-sample cell harvester (Unifilter, Packard). The filters are dried then counted for radioactivity in a scintillation counter (Topcount, Packard) using a scintillation cocktail (Microscint 0, Packard).
The results are expressed as a percent inhibition of the control radioligand specific binding.
The standard reference compound is rilmenidine, which is tested in each experiment at several concentrations to obtain a competition curve from which its IC50 is calculated.
Bibliographic reference: MOLDERINGS, G. J., MOURA, D., FINK, K., BONISCH, H. and GOTHERT, M. (1993), Binding of [3H]clonidine to I1-imidazoline sites in bovine adrenal medullary membranes, Naun.-Sch. Arch. Pharm., 348: 70.

[5] = system: Sigma receptor (non-selective); test: ligand binding screen, non-selective Sigma receptor; conditions: Sigma (non-select), inhibition of ligand binding

5-HT7, sequence (P34969 whole entry, species assumed): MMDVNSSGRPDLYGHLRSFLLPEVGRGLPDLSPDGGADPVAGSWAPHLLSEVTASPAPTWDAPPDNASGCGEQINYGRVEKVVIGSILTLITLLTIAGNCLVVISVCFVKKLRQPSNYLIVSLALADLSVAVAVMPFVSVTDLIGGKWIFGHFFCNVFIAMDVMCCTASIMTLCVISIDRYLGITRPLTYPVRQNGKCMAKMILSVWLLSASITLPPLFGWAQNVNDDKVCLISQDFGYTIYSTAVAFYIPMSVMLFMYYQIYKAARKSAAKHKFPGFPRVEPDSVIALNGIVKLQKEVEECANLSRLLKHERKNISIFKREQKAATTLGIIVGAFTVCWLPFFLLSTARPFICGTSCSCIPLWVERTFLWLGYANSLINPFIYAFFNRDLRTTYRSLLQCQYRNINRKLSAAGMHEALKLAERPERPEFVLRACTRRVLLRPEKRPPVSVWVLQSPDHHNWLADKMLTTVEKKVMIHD
Sigma-1 receptor, sequence (Q99720 whole entry, species assumed): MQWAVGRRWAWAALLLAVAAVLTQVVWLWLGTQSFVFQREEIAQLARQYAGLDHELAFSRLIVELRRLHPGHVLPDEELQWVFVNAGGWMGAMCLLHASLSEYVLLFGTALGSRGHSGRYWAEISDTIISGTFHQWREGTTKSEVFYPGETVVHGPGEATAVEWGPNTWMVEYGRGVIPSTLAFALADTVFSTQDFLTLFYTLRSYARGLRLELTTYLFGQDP
Sigma-2 receptor, sequence (Q5BJF2 whole entry, species assumed): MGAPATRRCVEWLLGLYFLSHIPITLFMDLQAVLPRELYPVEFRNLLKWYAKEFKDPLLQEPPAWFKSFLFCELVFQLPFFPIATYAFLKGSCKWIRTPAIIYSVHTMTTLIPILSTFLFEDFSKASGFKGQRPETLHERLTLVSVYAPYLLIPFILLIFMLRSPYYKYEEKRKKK

SMILES: CNC(C)Cc1ccc2c(c1)OCO2 (racemic) [MDMA, 3,4-methylenedioxy-N-methylamphetamine]
- half-life ([1]; given as the racemate): around 8 hours

SMILES: CNC(C)CCC=C(C)C (racemic) [Racemic, reference compound]
- solubility in water [2]: soluble in water
- inhibition at 10 µM (5-HT 1A): 37%
- inhibition at 10 µM (α2B-adrenergic receptor): 76%
- inhibition at 10 µM (5-HT7): 46%
- inhibition at 10 µM (Adrenergic a2C): 41%

SMILES: CN[C@@H](C)CCC=C(C)C (single isomer, unassigned) [Isomer 1]
- Ki (α2B-adrenergic receptor): 2.7 µM
- inhibition at 10 µM (α2B-adrenergic receptor): 29%
- Ki (Sigma-2 receptor): 5.2 µM
- Ki (Sigma-1 receptor): 2.1 µM
- Ki [3]: 1.1 µM
- Inhibition @ 10 μM(%) [3]: 84%
- inhibition at 10 µM (5-HT7): 13%
- Efficacy (human TAAR1 receptor): 49.4%
- interaction with I1 less avidly than the R-Isometheptene enantiomer ([4]; (S) versus (R) enantiomer): about 60 fold
- Ki [4]: 1.1 µM
- Inhibition @ 10 μM(%) [5]: 87%
- inhibition at 10 µM (Adrenergic a2C): 0%

SMILES: CNC(C)CCC=C(C)C (single isomer, unassigned) [Isomer 2]
- Ki (α2B-adrenergic receptor): 2.3 µM
- inhibition at 10 µM (α2B-adrenergic receptor): 57%
- Ki (Sigma-2 receptor): 5.6 µM
- Ki (Sigma-1 receptor): 1.9 µM
- Ki [3]: 1.5 µM
- Inhibition @ 10 μM(%) [3]: 86%
- inhibition at 10 µM (5-HT7): 31%
- Efficacy (human TAAR1 receptor): 25.6%
- binding to I1 receptor more avidly than the (S)-Isometheptene enantiomer ([4]; (R) versus (S) enantiomer): about 60 fold
- Ki [4]: 0.018 µM
- Inhibition @ 10 μM(%) [5]: 86%
- inhibition at 10 µM (Adrenergic a2C): 0%

SMILES: CN[C@@H](C)CCC=C(C)C (single isomer, unassigned) [Isometheptene Mucate Isomer 1]
- EC50 (human TAAR1 receptor): 21.1 µM

SMILES: O=C(O)[C@@H](O)[C@H](O)[C@H](O)[C@@H](O)C(=O)O (single isomer, unassigned) [Isometheptene Mucate Isomer 2]
- EC50 (human TAAR1 receptor): 29.5 µM

SMILES: CN[C@H](C)Cc1ccc2c(c1)OCO2 [(R)-MDMA, (R)-3,4-methylenedioxy-N-methylamphetamine]
- area under the blood plasma concentration versus time curve (AUC), (R)-MDMA relative to (S)-MDMA ([1]; 40 mg oral dose in human volunteers): two to four times higher
- plasma half-life [1]: 5.8 ± 2.2 h

SMILES: CN[C@@H](C)Cc1ccc2c(c1)OCO2 [(S)-MDMA]
- plasma half-life [1]: 3.6 ± 0.9 h
